The values that follow come from patent US20240417387A1, “SULFONYLPIPERAZINYL COMPOUNDS FOR TREATMENT OF BACTERIAL INFECTIONS” (Hoffmann-La Roche Inc., priority 2021, published 2024).

Series [1] relates to Escherichia coli BW 25113. In words: Minimal Inhibitory Concentration (MIC) broth dilution assay, E. coli BW 25113. The class given is cell-based. To be noted: Escherichia coli, BW25113, 20 hours at 35° C., CAMHB, read-out: MIC E. coli K-12 BW 25113. The method in brief: (§1)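 Broth microdilution with twofold compound series in cation-adjusted Mueller Hinton broth, inoculum 5×10^5 CFU/mL, applied to each strain. Plates incubated 20 h at 35 °C in ambient air. MIC […] recorded as the lowest concentration with no visible growth, read by eye.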
In general terms: Broth dilution looks for growth in wells or tubes with falling amounts of substance.

Series [2] is described as follows: Human microsome stability assay. Conditions: human liver microsomes 0.5 mg/mL, 37° C., pH 7.4, NADPH regenerating system. The format is in vitro ADME. The essentials:
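Compound […] with 0.5 mg/mL human liver microsomal protein in 100 mM potassium phosphate pH 7.4, 10 min preincubation at 37 °C, started with NADPH regenerating system. Sampled 0–30 min, remaining compound by LC-MS/MS; clearance binned low <7, medium 7–16.2, high >16.2 mL/min/kg.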

Series [3] concerns Klebsiella pneumonia ATCC 43816. The experiment in a line: Minimal Inhibitory Concentration (MIC) broth dilution assay, K. pneumonia ATCC 43816. The class given is cell-based. Conditions: Klebsiella pneumoniae, ATCC43816, 20 hours at 35° C., CAMHB, read-out: MIC K. p ATCC 43816. The method in brief:
as §1

Series [4] concerns Escherichia coli ATCC 25922. The experiment in a line: Minimal Inhibitory Concentration (MIC) broth dilution assay, E. coli ATCC 25922. To be noted: Escherichia coli, ATCC25922, 20 h, read-out: MIC E. coli ATCC 25922. The class given is cell-based. The essentials: as §1
The target of series [5] is Escherichia coli UDP-2,3-diacylglucosamine hydrolase (LpxH) (Escherichia coli (strain K12), UniProt P43341). The experiment in a line: Enzymatic IC50 assay of Escherichia coli LpxH (UMP/CMP-Glo luminescence). The class given is biochemical. Conditions: Enzymatic IC50 against Escherichia coli LpxH; read-out: IC50 (converted). The method in brief:
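LpxH (2 nM) preincubated 10 min at room temperature with compound (100 μM to 1.7 nM) in Tris-HCl pH7.5 buffer with 2.5 mM MnCl2, then reacted with 5 μM UDP-DAG for 20 min. Reaction heat-stopped at 95° C.; released UMP converted to ATP and read by luciferase luminescence (UMP/CMP-Glo).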

≈ marks a conversion by molar mass, not a printed value.

Chain of Escherichia coli UDP-2,3-diacylglucosamine hydrolase (LpxH) (P43341 whole entry): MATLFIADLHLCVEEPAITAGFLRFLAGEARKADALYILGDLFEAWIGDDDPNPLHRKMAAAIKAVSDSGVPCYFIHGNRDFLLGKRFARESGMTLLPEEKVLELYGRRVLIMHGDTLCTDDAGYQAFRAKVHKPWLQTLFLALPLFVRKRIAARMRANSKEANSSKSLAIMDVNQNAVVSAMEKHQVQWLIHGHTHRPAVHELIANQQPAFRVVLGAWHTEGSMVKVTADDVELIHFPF

As usually defined, the MIC is the lowest concentration that inhibits growth of the organism. One may read the IC50 as the concentration at which inhibition is half-maximal. With `NCC(O)CNC(=O)c1cnc(C(F)(F)c2cc(Cl)nc(N3CCN(S(=O)(=O)c4ccc(N5C[C@H](N)CC5=O)cc4)CC3)c2)cn1` (stereo partly drawn) [Example 022, N-(3-amino-2-hydroxy-propyl)-5-[[2-chloro-6-[4-[4-[(4R)-4-amino-2-oxo-pyrrolidin-1-yl]phenyl]sulfonylpiperazin-1-yl]-4-pyridyl]-difluoro-methyl]pyrazine-2-carboxamide], the figures for the MIC in series [1], in series [3] and in series [4] were 1.4 µg/mL (≈ 2.06 µM), 0.71 µg/mL (≈ 1.04 µM) and 0.71 µg/mL (≈ 1.04 µM), respectively. In series [2], the “Clearance of Human microsome” value was found to be 6.15 mL/min/kg. In addition, the half-maximal inhibitory concentration (IC50) in series [5] is 5.88 nM.
Consider `CN(C)CCCNC(=O)c1cnc(C(F)(F)c2cc(Cl)nc(N3CCN(S(=O)(=O)c4ccc(N5C[C@H](N)CC5=O)cc4)CC3)c2)cn1` [Example 023, 5-[[2-chloro-6-[4-[4-[(4R)-4-amino-2-oxo-pyrrolidin-1-yl]phenyl]sulfonylpiperazin-1-yl]-4-pyridyl]-difluoro-methyl]-N-[3-(dimethylamino)propyl]pyrazine-2-carboxamide], for which the results for the MIC in series [1], in series [3] and in series [4] were 1.4 µg/mL (≈ 2.02 µM), 2.9 µg/mL (≈ 4.19 µM) and 1.4 µg/mL (≈ 2.02 µM), respectively. In addition, the “Clearance of Human microsome” value in series [2] stood at 6.15 mL/min/kg. Also, in series [5], the half-inhibitory concentration (IC50) was less than 2.89 nM.
In the case of `NCCNC(=O)c1cnc(C(F)(F)c2cc(Cl)nc(N3CCN(S(=O)(=O)c4ccc(N5C[C@H](N)CC5=O)cc4)CC3)c2)cn1` [Example 024, N-(2-aminoethyl)-5-[[2-chloro-6-[4-[4-[(4R)-4-amino-2-oxo-pyrrolidin-1-yl]phenyl]sulfonylpiperazin-1-yl]-4-pyridyl]-difluoro-methyl]pyrazine-2-carboxamide], the minimum inhibitory concentration (MIC) in series [1], in series [3] and in series [4] was 0.69 µg/mL (≈ 1.06 µM) throughout. The “Clearance of Human microsome” value in series [2] came out at 11.22 mL/min/kg. Further, the IC50 in series [5] was 4.61 nM.
For the molecule `NCCCNC(=O)c1ccc(C(F)(F)c2cc(Cl)nc(N3CCN(S(=O)(=O)c4ccc(N5C[C@H](N)CC5=O)cc4)CC3)c2)nc1` [Example 026, N-(3-aminopropyl)-6-[[2-chloro-6-[4-[4-[(4R)-4-amino-2-oxo-pyrrolidin-1-yl]phenyl]sulfonylpiperazin-1-yl]-4-pyridyl]-difluoro-methyl]pyridine-3-carboxamide], the MIC in series [1], in series [3] and in series [4] was 0.78 µg/mL (≈ 1.18 µM) in each case. The “Clearance of Human microsome” value in series [2] is recorded as 6.15 mL/min/kg. Further, the IC50 in series [5] was 10.6 nM.
On to `CN(C)CCCNC(=O)c1ccc(C(F)(F)c2cc(Cl)nc(N3CCN(S(=O)(=O)c4ccc(N5C[C@H](N)CC5=O)cc4)CC3)c2)nc1` [Example 027, 6-[[2-chloro-6-[4-[4-[(4R)-4-amino-2-oxo-pyrrolidin-1-yl]phenyl]sulfonylpiperazin-1-yl]-4-pyridyl]-difluoro-methyl]-N-[3-(dimethylamino)propyl]pyridine-3-carboxamide], for which the MIC in series [1] was 1.6 µg/mL (≈ 2.31 µM); in series [3] it was 3.2 µg/mL (≈ 4.63 µM); in series [4], 3.2 µg/mL (≈ 4.63 µM). For the same molecule, in series [2], the “Clearance of Human microsome” value amounted to 6.15 mL/min/kg. Further, the IC50 in series [5] is 5.79 nM.
`CNCCCNC(=O)c1ccc(C(F)(F)c2cc(Cl)nc(N3CCN(S(=O)(=O)c4ccc(N5C[C@H](N)CC5=O)cc4)CC3)c2)cn1` [Example 029, 5-[[2-chloro-6-[4-[4-[(4R)-4-amino-2-oxo-pyrrolidin-1-yl]phenyl]sulfonylpiperazin-1-yl]-4-pyridyl]-difluoro-methyl]-N-[3-(methylamino)propyl]pyridine-2-carboxamide]: the MIC in series [1] was 2.8 µg/mL (≈ 4.13 µM); in series [3], 1.4 µg/mL (≈ 2.07 µM); in series [4], 1.4 µg/mL (≈ 2.07 µM). Also, the “Clearance of Human microsome” value in series [2] is recorded as 7.22 mL/min/kg. Besides, the IC50 in series [5] was 2.95 nM.
As for `CN(CCN)C(=O)[C@H]1CC[C@H](C(F)(F)c2cc(Cl)nc(N3CCN(S(=O)(=O)c4ccc(N5C[C@H](N)CC5=O)cc4)CC3)c2)CC1` [Example 030, Trans-N-(2-aminoethyl)-4-[[2-chloro-6-[4-[4-[(4R)-4-amino-2-oxo-pyrrolidin-1-yl]phenyl]sulfonylpiperazin-1-yl]-4-pyridyl]-difluoro-methyl]-N-methyl-cyclohexanecarboxamide], the figures for the MIC in series [1], in series [3] and in series [4] were 1.7 µg/mL (≈ 2.54 µM), 1.7 µg/mL (≈ 2.54 µM) and 1.1 µg/mL (≈ 1.65 µM), respectively. For the same molecule, in series [2], the “Clearance of Human microsome” value is given as 6.90 mL/min/kg. In addition, in series [5], the IC50 is 8.98 nM.
As for `NCCCNC(=O)[C@H]1CC[C@@H](C(F)(F)c2cc(Cl)nc(N3CCN(S(=O)(=O)c4ccc(N5C[C@H](N)CC5=O)cc4)CC3)c2)CC1` [Example 031], the MIC in series [1] is 1.7 µg/mL (≈ 2.54 µM); in series [3], 2.2 µg/mL (≈ 3.29 µM); in series [4], 2.2 µg/mL (≈ 3.29 µM). Besides, in series [2], the “Clearance of Human microsome” value was 6.15 mL/min/kg. For the same molecule, the concentration for half-maximal inhibition (IC50) in series [5] is 7.48 nM.
As for `NCCCNC(=O)C12CCC(C(F)(F)c3cc(Cl)nc(N4CCN(S(=O)(=O)c5ccc(N6C[C@H](N)CC6=O)cc5)CC4)c3)(CC1)CC2` [Example 033, N-(3-aminopropyl)-4-[[2-chloro-6-[4-[4-[(4R)-4-amino-2-oxo-pyrrolidin-1-yl]phenyl]sulfonylpiperazin-1-yl]-4-pyridyl]-difluoro-methyl]bicyclo[2.2.2]octane-1-carboxamide], the MIC in series [1] worked out at 1.1 µg/mL (≈ 1.58 µM); in series [3], 0.43 µg/mL (≈ 0.619 µM); in series [4], 0.57 µg/mL (≈ 0.821 µM). Further, in series [2], the “Clearance of Human microsome” value is 10.77 mL/min/kg. Also, the IC50 in series [5] was 5.76 nM.
For the molecule `NCCCNC(=O)C12CCC(C(F)(F)c3cc(Cl)nc(N4CCN(S(=O)(=O)c5ccc(N6C[C@H](N)CC6=O)cc5)CC4)c3)(CC1)C2` [Example 034, N-(3-aminopropyl)-4-[[2-chloro-6-[4-[4-[(4R)-4-amino-2-oxo-pyrrolidin-1-yl]phenyl]sulfonylpiperazin-1-yl]-4-pyridyl]-difluoro-methyl]norbornane-1-carboxamide], the minimum inhibitory concentration (MIC) in series [1] was 1.7 µg/mL (≈ 2.5 µM); in series [3], 1.1 µg/mL (≈ 1.62 µM); in series [4], 1.1 µg/mL (≈ 1.62 µM). The “Clearance of Human microsome” value in series [2] is 6.15 mL/min/kg. In addition, in series [5], the IC50 was 29.4 nM.
As for `NCC(O)CNC(=O)[C@H]1CC[C@H](C(F)(F)c2cc(Cl)nc(N3CCN(S(=O)(=O)c4ccc(N5C[C@H](N)CC5=O)cc4)CC3)c2)CC1` (stereo partly drawn) [Example 036, Trans-N-(3-amino-2-hydroxy-propyl)-4-[[2-chloro-6-[4-[4-[(4R)-4-amino-2-oxo-pyrrolidin-1-yl]phenyl]sulfonylpiperazin-1-yl]-4-pyridyl]-difluoro-methyl]cyclohexanecarboxamide], the MIC in series [1], in series [3] and in series [4] was 1.1 µg/mL (≈ 1.61 µM) in each case. The “Clearance of Human microsome” value in series [2] was 6.15 mL/min/kg. The IC50 in series [5] was 5.85 nM.
Regarding `C[N+](C)(C)CCCNC(=O)c1ccc(C(F)(F)c2cc(Cl)nc(N3CCN(S(=O)(=O)c4ccc(N5C[C@H](N)CC5=O)cc4)CC3)c2)cc1` [Example 037], the MIC in series [1] turned out to be 0.73 µg/mL; in series [3] it was 1.5 µg/mL; in series [4] it was 1.5 µg/mL. Moreover, the “Clearance of Human microsome” value in series [2] came out at 6.66 mL/min/kg. The IC50 in series [5] is less than 2.84 nM.
As for `C[N+]1(CCCNC(=O)c2ccc(C(F)(F)c3cc(Cl)nc(N4CCN(S(=O)(=O)c5ccc(N6C[C@H](N)CC6=O)cc5)CC4)c3)cc2)CCCC1` [Example 038, 4-[[2-Chloro-6-[4-[4-[(4R)-4-amino-2-oxo-pyrrolidin-1-yl]phenyl]sulfonylpiperazin-1-yl]-4-pyridyl]-difluoro-methyl]-N-[3-(1-methylpyrrolidin-1-ium-1-yl)propyl]benzamide], the minimum inhibitory concentration (MIC) in series [1], in series [3] and in series [4] was 1.5 µg/mL each time. Further, the “Clearance of Human microsome” value in series [2] worked out at 6.80 mL/min/kg. Moreover, the half-maximal inhibitory concentration (IC50) in series [5] is 4.1 nM.
Regarding `N[C@@H]1CC(=O)N(c2ccc(S(=O)(=O)N3CCN(c4cc(C(F)(F)c5ccc(C(=O)NCCCNCCO)nc5)cc(Cl)n4)CC3)cc2)C1` [Example 039, 5-[[2-Chloro-6-[4-[4-[(4R)-4-amino-2-oxo-pyrrolidin-1-yl]phenyl]sulfonylpiperazin-1-yl]-4-pyridyl]-difluoro-methyl]-N-[3-(2-hydroxyethylamino)propyl]pyridine-2-carboxamide], the values for the MIC in series [1], in series [3] and in series [4] were 0.82 µg/mL (≈ 1.16 µM), 1.6 µg/mL (≈ 2.26 µM) and 1.6 µg/mL (≈ 2.26 µM), respectively. Also, in series [2], the “Clearance of Human microsome” value was determined as 6.15 mL/min/kg. Also, the IC50 in series [5] is 4.24 nM.
Consider `NCCOCCNC(=O)[C@H]1CC[C@H](C(F)(F)c2cc(Cl)nc(N3CCN(S(=O)(=O)c4ccc(N5C[C@H](N)CC5=O)cc4)CC3)c2)CC1` [Example 042, Trans-N-[2-(2-aminoethoxy)ethyl]-4-[[2-chloro-6-[4-[4-[(4R)-4-amino-2-oxo-pyrrolidin-1-yl]phenyl]sulfonylpiperazin-1-yl]-4-pyridyl]-difluoro-methyl]cyclohexanecarboxamide], for which the minimal inhibitory concentration (MIC) in series [1], in series [3] and in series [4] was 2.3 µg/mL (≈ 3.29 µM) in each case. For the same molecule, in series [2], the “Clearance of Human microsome” value turned out to be 11.12 mL/min/kg. Further, the IC50 in series [5] was 11.5 nM.
